# In ChEMBL document CHEMBL1201862, “PubChem BioAssay data set” (2004):
#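 Grown in 96-well plates, cells were treated for 48 hours with each compound at five concentrations. Insufficient inhibition: endpoint recorded as highest concentration tested. Abbreviation: GI50, concentration required for 50% inhibition of growth.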 Activity calls are given as the source filed them. Rule as the data show it: active = GI50 up to about 1.1 µM and inactive = higher.
# How the values were obtained:
# Assay in all cases: growth of human tumour cells (NCI), 48 h
# [1] = system: HL-60
# [2] = system: SK-MEL-5
# [3] = system: BT-549
# [4] = system: SK-MEL-2
# [5] = system: MDA-MB-435
# [6] = system: SF-539
# [7] = system: OVCAR-5
# [8] = system: HCT-116
# [9] = system: COLO 205
# [10] = system: HCT-15
# [11] = system: SF-268
# [12] = system: KM12
# [13] = system: SNB-19
# [14] = system: DU-145
# [15] = system: NCI-H522
# [16] = system: NCI-H226
# [17] = system: PC-3
# [18] = system: OVCAR-4
# [19] = system: UACC-62
# [20] = system: OVCAR-3
# [21] = system: ACHN
# [22] = system: UACC-257
# [23] = system: Malme-3M
# [24] = system: IGROV-1
# [25] = system: SN12C
# [26] = system: SR
# [27] = system: HT-29
# [28] = system: 786-0
# [29] = system: HOP-92
# [30] = system: RPMI-8226
# [31] = system: CAKI-1
# [32] = system: RXF 393
# [33] = system: SK-OV-3
# [34] = system: MCF7
# [35] = system: HCC 2998
# [36] = system: HOP-62
# [37] = system: M14
# [38] = system: LOX IMVI
# [39] = system: CCRF-CEM
# [40] = system: EKVX
# [41] = system: A549
# [42] = system: K562
# [43] = system: NCI-H460
# [44] = system: Hs-578T
# [45] = system: A498
# [46] = system: SK-MEL-28
# [47] = system: U-251
# [48] = system: MOLT-4
# [49] = system: TK-10
# [50] = system: OVCAR-8
# [51] = system: SF-295
# [52] = system: UO-31
# [53] = system: SW-620
# [54] = system: MDA-N
# [55] = system: NCI/ADR-RES
# [56] = system: NCI-H23
# [57] = system: SNB-75
# [58] = system: T47D
# [59] = system: MDA-MB-231
smiles,measurement,setting,value
COC(=O)C1SC(N(C)c2ccccc2)=NC12c1ccccc1Nc1ccccc12 (centres undefined),GI50,[1],12.7 µM (inactive)
same,GI50,[2],12.9 µM (inactive)
same,GI50,[3],15.9 µM (inactive)
same,GI50,[4],15.5 µM (inactive)
same,GI50,[5],17.6 µM (inactive)
same,GI50,[6],18.4 µM (inactive)
same,GI50,[7],25.3 µM (inactive)
same,GI50,[8],23.3 µM (inactive)
same,GI50,[9],14.5 µM (inactive)
same,GI50,[10],13.6 µM
same,GI50,[11],21 µM (inactive)
same,GI50,[12],18.3 µM (inactive)
same,GI50,[13],23.9 µM (inactive)
same,GI50,[14],25.7 µM (inactive)
same,GI50,[15],13.4 µM (inactive)
same,GI50,[16],20.7 µM (inactive)
same,GI50,[17],16.3 µM (inactive)
same,GI50,[18],19.7 µM (inactive)
same,GI50,[19],13.6 µM (inactive)
same,GI50,[20],11 µM (inactive)
same,GI50,[21],31 µM (inactive)
same,GI50,[22],25.2 µM (inactive)
same,GI50,[23],15.8 µM (inactive)
same,GI50,[24],14.2 µM (inactive)
same,GI50,[25],22.4 µM (inactive)
same,GI50,[26],15.3 µM (inactive)
same,GI50,[27],19.3 µM (inactive)
same,GI50,[28],26.1 µM (inactive)
same,GI50,[29],14.1 µM (inactive)
same,GI50,[30],3.08 µM (inactive)
same,GI50,[31],23.8 µM (inactive)
same,GI50,[32],31.3 µM (inactive)
same,GI50,[33],39.8 µM (inactive)
same,GI50,[34],22 µM (inactive)
same,GI50,[35],20.5 µM (inactive)
same,GI50,[36],33.8 µM (inactive)
same,GI50,[37],19.5 µM (inactive)
same,GI50,[38],19.1 µM (inactive)
same,GI50,[39],6.71 µM (inactive)
same,GI50,[40],22.8 µM (inactive)
same,GI50,[41],20.3 µM (inactive)
same,GI50,[42],15.1 µM (inactive)
same,GI50,[43],10.8 µM (inactive)
same,GI50,[44],14.5 µM (inactive)
same,GI50,[45],20.7 µM (inactive)
same,GI50,[46],19.2 µM (inactive)
same,GI50,[47],27.5 µM (inactive)
same,GI50,[48],7.31 µM (inactive)
same,GI50,[49],29.8 µM (inactive)
same,GI50,[50],8.89 µM (inactive)
same,GI50,[51],17.2 µM (inactive)
same,GI50,[52],22.5 µM (inactive)
same,GI50,[53],27.9 µM (inactive)
same,GI50,[54],23.1 µM (inactive)
same,GI50,[55],13.5 µM (inactive)
same,GI50,[56],13.6 µM (inactive)
same,GI50,[57],25.8 µM (inactive)
same,GI50,[58],15.7 µM (inactive)
O=C(O)c1ccccc1-c1ccccc1C(=O)Nc1ccc2c(c1)nc(O)c1ccccc12,GI50,[1],94.8 µM (inactive)
same,GI50,[2],> 100 µM (inactive)
same,GI50,[3],52.4 µM (inactive)
same,GI50,[4],87.9 µM (inactive)
same,GI50,[5],89.7 µM (inactive)
same,GI50,[6],94.2 µM (inactive)
same,GI50,[7],> 100 µM (inactive)
same,GI50,[8],> 100 µM (inactive)
same,GI50,[9],> 100 µM (inactive)
same,GI50,[10],> 100 µM
same,GI50,[11],> 100 µM (inactive)
same,GI50,[12],> 100 µM (inactive)
same,GI50,[13],83.4 µM (inactive)
same,GI50,[14],> 100 µM (inactive)
same,GI50,[15],61.8 µM (inactive)
same,GI50,[16],> 100 µM (inactive)
same,GI50,[17],> 100 µM (inactive)
same,GI50,[18],> 100 µM (inactive)
same,GI50,[19],59.6 µM (inactive)
same,GI50,[20],> 100 µM (inactive)
same,GI50,[21],> 100 µM (inactive)
same,GI50,[22],> 100 µM (inactive)
same,GI50,[23],> 100 µM (inactive)
same,GI50,[24],94.4 µM (inactive)
same,GI50,[25],> 100 µM (inactive)
same,GI50,[27],> 100 µM (inactive)
same,GI50,[28],> 100 µM (inactive)
same,GI50,[29],> 100 µM (inactive)
same,GI50,[30],> 100 µM (inactive)
same,GI50,[31],> 100 µM (inactive)
same,GI50,[32],> 100 µM (inactive)
same,GI50,[33],> 100 µM (inactive)
same,GI50,[34],> 100 µM (inactive)
same,GI50,[36],> 100 µM (inactive)
same,GI50,[37],> 100 µM (inactive)
same,GI50,[38],48.9 µM (inactive)
same,GI50,[39],62.8 µM (inactive)
same,GI50,[40],> 100 µM (inactive)
same,GI50,[41],> 100 µM (inactive)
same,GI50,[42],39.6 µM (inactive)
same,GI50,[59],88.9 µM (inactive)
same,GI50,[43],> 100 µM (inactive)
same,GI50,[44],98.4 µM (inactive)
same,GI50,[45],34.3 µM (inactive)
same,GI50,[46],> 100 µM (inactive)
same,GI50,[47],51.9 µM (inactive)
same,GI50,[48],25.8 µM (inactive)
same,GI50,[49],> 100 µM (inactive)
same,GI50,[50],> 100 µM (inactive)
same,GI50,[51],> 100 µM (inactive)
same,GI50,[52],> 100 µM (inactive)
same,GI50,[53],> 100 µM (inactive)
same,GI50,[55],> 100 µM (inactive)
same,GI50,[56],> 100 µM (inactive)
same,GI50,[57],93.3 µM (inactive)
same,GI50,[58],> 100 µM (inactive)
